Experiments:
ARPE-19 cells = type: cell-based; conditions: human, 24 h
Procedure: 14) Toxicities analysis on lysozyme and cefdinir. Toxicities analysis of lysozyme and cefdinir were performed on ARPE-19 and 293T cells [Guo H et al., ACS Chem Biol 17, 2003-2009 (2022)]. Drugs at different concentrations were added into the plates, in which cells had 80% confluency. Those without any drug's treatment served as control group. Ater 24 hours culture at 37° C., survival cells were counted by using CCK-8 kit, 100% survival ratio (no toxicity) was defined as those had same number of survival cells in control group.

MRSA = assay: Antibiotics accumulation analysis (LC-MS/MS); type: cell-based, Staphylococcus aureus
Procedure: 11) Antibiotics accumulation analysis. The accumulation of antibiotics in MRSA was determined by LC-MS/MS analysis according to a previous report [Liu, Y et al., Adv. Sci. 7. 1902227 (2020); Ong, V et al., Drug Metab. Dispos, 4127 (2014); Richter, M. F et al., Nature 545, 299-304 (2017)]. Briefly, 1.0 ml of overnight culture of MRSA was diluted into […] of fresh LB medium and cultured at 37° C. with shaking at 250 rpm until when bacteria OD600 was about 0.4. Then, tedizolid phosphate (0.5 μg/ml) in combination with varying lysozyme (0, 0.25, 0.5 and 1.0 mg/ml) was added. After that, all samples were further cultured at 37° C. with shaking at 250 rpm for 0.5, 1.0, 2.0 or 4 hours, respectively. Then, all bacteria were pelleted by centrifuging at 13 000 g for 20 minutes. To lyse the bacteria, each pellet was dissolved in 400 μl of lysis buffer (150 mM NaCl, 1% Triton-X100, 1× proteinase inhibitor and 50 mM HEPES-Na, pH 8.0) and then subjected to sonication lysis, followed by three freeze-thaw cycles in liquid nitrogen. The lysates were pelleted at 13 000 g for 20 minutes and the supernatants were collected. All debris were re-suspended in 400 μl of methanol and pelleted as before, followed by 400 μl of acetonitrile treatment as before. These supernatants were combined with the previously collected supernatants, Residual debris was removed by centrifuging at 13 000 g for 20 minutes. Supernatants were analyzed by an Agilent 1260 Infinity HPLC system coupled to AD SCIEX QTRAP 6500 mass spectrometers (ABSciex, CA, USA). The liquid chromatography separation was performed on water HSS T3 column (2.1×100 mm, 3 μm) with mobile phase A (20 mM ammonium formate in water) and mobile phase B (methanol). The flow rate was […]. […] The quantification determination of antibiotic uptake was performed by multiple reaction monitoring (MRM) with negative electrospray ionization using the m/z 451 transition for tedizolid phosphate [Ong, V et al., Drug Metab. […]

MRSE = assay: Time-killing curves, tedizolid phosphate/lysozyme; type: cell-based, Staphylococcus epidermis; conditions: tedizolid phosphate + 0.5 mg/ml lysozyme, after 22 hours; dropping from the level of 10^12

SMILES | safe concentration without any effect on cell survival ratios (ARPE-19 cells) | increase in the level of intracellular tedizolid phosphate (MRSA; after 4 hours, lysozyme (≤0.25 mg/ml) used in combination) | intracellular accumulation of tedizolid phosphate (MRSA; combination therapy, 1 hour) | tedizolid phosphate alone needed to achieve the same intracellular accumulation (MRSA; tedizolid phosphate alone, 1 hour) | bacterial load per ml culture (MRSE)
C=CC1=C(C(=O)O)N2C(=O)[C@@H](NC(=O)/C(=N\O)c3csc(N)n3)[C@H]2SC1 [cefdinir, Cefdinir] | < 64 µg/mL |  |  |  | 
Cn1nnc(-c2ccc(-c3ccc(N4C[C@H](COP(=O)(O)O)OC4=O)cc3F)cn2)n1 [tedizolid phosphate, Tedizolid Phosphate] |  | 10 fold | ca. 100 μg/l | ≥ 4.5 µg/mL | 10^6 colony forming units (CFUs)
